Source: patent US5614548A, “Quaternary amine containing ether or ester lipid derivatives and therapeutic compositions” (priority 1994, dated 1997)

Legend:
[1] = system: HL60 human leukemia cell line; assay: HL60 cell growth inhibition (trypan blue, 48 h); format: cell-based; conditions: Homo sapiens, HL-60, 48 h, HL60, 48 hours; read-out: ID50 (the source's name)
Method: A number of the compounds disclosed herein have been tested against the HL60 human leukemia cell line to assess their cytotoxic potential. These analogs were investigated in parallel with ET-18-OMe which was used as the reference compound. The methodologies used in this investigation were the same as described in A. Noseda, M. Berens, C. Piantadosi, and E. J. Modest, Lipids 22, 878-883, 1987. In brief, HL60 cells at a concentration of […] were incubated in wells with one milliliter medium with the experimental drug in parallel with the same concentration of cells with ET-18-OMe (standard) or EtOH (control). After 48 hours of incubation the cells were counted using the trypan blue dye exclusion technique to determine the effect of the drug on cell growth. The experimental drug and ET-18-OMe were tested at the same concentrations, e.g., 10, 5, 2.5 and 1.25 μM.

HIV-1 [2] = assay: HIV-1 plaque assay, inhibitor added 60 minutes after infection; format: cell-based, human immunodeficiency virus type 1 (HIV-1); conditions: for anti-HIV-1 activity: HIV-1 plaque formation, in words; for IC50: Human immunodeficiency virus 1, CEM-SS monolayers, compound from sixty minutes after infection, N = 4, read-out: Inhibitory Concentration50 HIV-1 Plaque Formation
Source text: (§1) Dextran sulfate was used as a positive control. […] Plaques were counted at five days after infection.
(§2) By way of further background, in our assay HIV-1 syncytial plaques are seen as large, multicellular foci (10 to 25 nuclei/syncytium) that appear either brown and granular or clear. Since the number of HIV-1 syncytial plaques correlates with reverse transcriptase (RT) and p24 core antigen activity in the HIV-1 infected cell overlay fluids, the syncytial plaque assay can be used to quantify the amount of infectious virus. Reverse transcriptase activity was assayed according to a described procedure (B. J. Poeisz et al., Proc. Natl. Acad. Sci. (U.S.A.) […], 7415 (1980)). The activity of p24 core antigen induced by HIV-1 infection of CEM-SS cells was measured spectrophotometrically using the commercial Abbott EIA.
(§3) Compound E inhibited HIV-1 plaque count 43%, 83%, and 91% at concentrations of 0.2, 0.4, and 2.0 μM, respectively, compared to untreated controls. […] In other experiments addition of 0.2, 0.4 and 2.0 μM Compound E starting sixty minutes after HIV-1 infection inhibited HIV-1 plaque formation 28%, 59% and 97% respectively, compared to untreated controls.
(§4) Next investigated were the correlations of EL analog structure with anti-HIV-l and anti-cell growth. The experimental method used six serial two-fold dilutions of EL that spanned concentrations above and below a concentration that inhibits HIV-1 plaque count, cell growth (^3 H-TdR uptake into cell DNA) or in vitro PKC activity by 50% (inhibitory concentration50 =IC50) compared to an appropriate mock treated control. Table 7 summarizes data on IC50 of phosphorus and non-phosphorus compounds for HIV-1 plaque formation and cell growth.
^1 Serial 2fold dilutions of compounds are used. HIV1 plaque formatio
is measured in CEMSS cell monolayers by having compound present starting
sixty minutes after virus infection. IC50 values for HIV1 plaque
formation are x ± one SD., N = 4. CEMSS cell growth is measured in […]

CEM-SS cells = assay: CEM-SS cell growth (3H-TdR uptake); format: cell-based; conditions: Homo sapiens, 48 hours, N = 3, read-out: Inhibitory Concentration50 CEM-SS Cell Growth
Source text: as §4
formation are x ± one SD., N = 4. CEMSS cell growth is measured in
suspension cultures by treating the cells with compound for 48 hours at
37° C. and then adding 1 μCi of ^3 HTdR (S.A. = 20 Ci/mmole
for 8 hours at 37° C. to measure DNA synthesis. IC50 values
for CEMSS growth are x of a representative experiment, N = 3.

HIV-1 [3] = assay: HIV-1 plaque assay, inhibitor added 30 minutes before infection; format: cell-based, human immunodeficiency virus type 1 (HIV-1)
Source text: as §1, §2, §3

Protein Kinase C = Protein Kinase C activity (32P incorporation into histone); format: biochemical, human (HL-60 cells)
Method: PKC was prepared and assayed as described previously. See Daniel, L. W. et al., Biochem. Biophys. Res. Comm. 151, 291 (1988). In brief, HL-60 cells were grown in 75 milliliter flasks, harvested and washed with ice-cold normal saline. After centrifugation (600×g, 5 minutes, 4° Centigrade), the cell pellet was resuspended (20 mM Tris-HCl, pH 7.5, 2 mM EDTA, 10 mM EGTA, 50 mM 2-mercaptoethanol, 2 mM phenylmethylsulfonyl fluoride) and sonicated for 20 s with a stepped microprobe sonciator. Unbroken cells were removed by centrifugation as above and the supernatant centrifuged (65,000×g, 90 minutes, 4° Centigrade). The supernatant from this step (cytosol) was then fractionated on a 1×8 cm DEAE-Sephacel column after addition to sucrose to a final concentration of 10%. After equilibrating the column (20 mM Tris, pH 7.5, 0.2 mM EDTA, 0.2 mM EGTA, 50 mM 2-mercaptoethanol, 10% sucrose), the sample was loaded and unbound material was washed through with 40 milliliters of the equilibrating buffer. The PKC was eluted by a gradient from 0-0.5M NaCl in the buffer described above. Fractions of 1 milliliter were collected at 25 milliliters per hour and 0.05 milliliter aliquots assayed for PKC activity as described below. The fractions with the highest activity were pooled and used in further experiments.
The assays were done at pH 7.5 in a total volume of 0.25 milliliter and all tubes contained 25 mM Tris, 10 mM MgCl2, 40 μg per milliliter histone, 10 μM ATP (including 1 μCi of [gamma-^32 P]-ATP), 0.1 mM CaCl2, 20 μg per milliliter phosphatidylserine, 0.05 milliliter of the PKC preparation and 2.5 μM of oleoylacetylglycerol (OAG). Enzymatic activity was determined as the incorporation of ^32 P from [gamma-^32 P]-ATP) into histone in the presence of Ca^2+, phosphatidylserine, and OAG. Reactions were initiated by the addition of the enzyme preparation and halted after 20 minutes at 30° Centigrade by the addition of 0.05 milliliters of bovine serum albumin (10 milligrams per milliliter) and 1 milliliter 25% ice-cold trichloroacetic acid. The tubes were kept on ice and then filtered in a millipore vacuum box using Millipore® HA filters and washed with 25% trichloroacetic acid. The radioactivity bound to the filters was determined by scintillation spectrometry in 5 milliliters Budget Solve®. […] The analog to be tested was dissolved in ethanol, and added directly into the reaction mixture before the addition of PKC. As a control, 0.1% ethanol was included in the samples with the enzyme but with no inhibitor.

SMILES | IC50 [1] [µM] | anti-HIV-1 activity (HIV-1 [2]) | inhibition at 0.2 µM (HIV-1 [2]; Human immunodeficiency virus 1, 1 h, 0.2 μM, 60 minutes after infection) [%] | inhibition at 0.4 µM (HIV-1 [2]; Human immunodeficiency virus 1, 1 h, 0.4 μM, 60 minutes after infection) [%] | inhibition at 2 µM (HIV-1 [2]; Human immunodeficiency virus 1, 1 h, 2.0 μM, 60 minutes after infection, read-out: Inhibition (%)) [%] | IC50 (HIV-1 [2]) [µM] | IC50 (CEM-SS cells) [µM] | inhibition at 0.2 µM (HIV-1 [3]; Human immunodeficiency virus 1, 0.2 μM, 30 minutes before infection, Table 6) [%] | inhibition at 0.4 µM (HIV-1 [3]; Human immunodeficiency virus 1, 0.4 μM, 30 minutes before infection, Table 6) [%] | inhibition at 2 µM (HIV-1 [3]; Human immunodeficiency virus 1, 2.0 μM, 30 minutes before infection, Table 6) [%] | inhibition at 0.2 µM (HIV-1 [3]; Human immunodeficiency virus 1, HIV-1 plaque formation, 0.2 μM, Table 5) [%] | inhibition at 0.4 µM (HIV-1 [3]; Human immunodeficiency virus 1, HIV-1 plaque formation, 0.4 μM, Table 5, read-out: Inhibition (%)) [%] | inhibition at 2 µM (HIV-1 [3]; Human immunodeficiency virus 1, HIV-1 plaque formation, 2 μM, Table 5) [%] | antiviral activity (HIV-1 plaque formation) (HIV-1 [3]; added before or after infection, in words) | Percent Protein Kinase C Activity Retained (Protein Kinase C; 1.25 μM) [%] | Percent Protein Kinase C Activity Retained (Protein Kinase C; 2.5 μM) [%] | Percent Protein Kinase C Activity Retained (Protein Kinase C; 5.0 μM) [%] | Percent Protein Kinase C Activity Retained (Protein Kinase C; 10.0 μM) [%] | Percent Protein Kinase C Activity Retained (Protein Kinase C; 20.0 μM) [%] | Percent Protein Kinase C Activity Retained (Protein Kinase C; 40.0 μM) [%]
CCCCCCCCCCCCCCCCSCC(C[N+](C)(C)CCO)OC.[Br-] (racemic) [CJM 57, (±)-3-hexadecylthio-2-methoxy-N,N-dimethyl-N-β-hydroxyethyl-1-propyl ammonium bromide] | 4.6 | significant anti-HIV-1 activity | 28 | 59 | 97 | 0.37 ± 0.01 | 3.2 | 30 | 38 | 85 | 43 | 83 | 91 | antiviral activity | – | – | – | – | – | –
CCCCCCCCCCCCCCCCSCC(C[N+](C)(C)CCO)OCC (stereo not shown) [B] | – | significant anti-HIV-1 activity | – | – | – | 0.63 ± 0.18 | 5.4 | – | – | – | – | – | – | – | 92 | 84 | 70 | 70 | 66 | 47
CCCCCCCCCCCCCCCCCCSCC(C[N+](C)(C)CCCO)OC (stereo not shown) [I] | – | significant anti-HIV-1 activity | – | – | – | 0.52 ± 0.33 | 3.4 | – | – | – | – | – | – | – | 75 | 56 | 49 | 39 | 27 | 23
CCCCCCCCCCCCCCCCOCC(O)(CO)CCCCCCCC (stereo not shown) [J] | – | did not inhibit HIV-1 plaque formation | – | – | – | > 10 | > 20 | – | – | – | – | – | – | – | – | – | – | – | – | –
CCCCCCCCCCCCCCCC(=O)OC[C@H](COP(=O)([O-])OCC[N+](C)(C)C)OC(=O)CCCCCCCCCCCCCCC [dipalmitoyl-phosphatidylcholine, reference compound] | – | – | – | – | – | > 1360 | > 681 | – | – | – | – | – | – | – | – | – | – | – | – | –
